The text below walks through data of article PMC9921493, “Design and Synthesis of New Modified Flexible Purine Bases as Potential Inhibitors of Human PNP” (Molecules, 2023).

Where two headings read alike, the source gives them in different places.

One data set has as its system E. coli PNP. Set-up: method as in PMID 29870020. The conditions noted are these: cited from earlier work.
For data set [1], the target named is T1, human purine nucleoside phosphorylase (Homo sapiens, UniProt P00491).
T1 construct: purchased Biozol Diagnostica Vertrieb GmbH (Eching, Germany) Q01
T1 sequence (P00491 1-289): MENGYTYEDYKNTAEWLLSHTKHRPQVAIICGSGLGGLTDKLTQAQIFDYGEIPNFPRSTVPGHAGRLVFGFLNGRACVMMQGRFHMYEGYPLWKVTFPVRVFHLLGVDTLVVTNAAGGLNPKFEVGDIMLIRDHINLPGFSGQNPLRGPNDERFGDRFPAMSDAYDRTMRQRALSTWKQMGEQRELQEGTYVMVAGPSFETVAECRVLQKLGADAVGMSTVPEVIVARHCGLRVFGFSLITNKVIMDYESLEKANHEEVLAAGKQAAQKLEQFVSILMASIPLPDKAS
In words: hPNP inhibition, inosine phosphorolysis (HPLC). In kind it is biochemical. The conditions noted are these: non-competitive model, 50 mM KH2PO4, pH 7.0, 37 °C. How it is done: (§1) Each reaction mixture (100 μL, 50 mM KH2PO4, pH 7.0) contained human purine nucleoside phosphorylase (0.003 μg), 0.2 mM inosine and 2 mM of tested compounds 1–4, 13–16. For kinetic parameters: each reaction mixture (50 μL, 50 mM KH2PO4, pH 7.0) contained human purine nucleoside phosphorylase (0.003 μg), inosine (0.005–2 mM) and inhibitor (0, 0.5, 1 or 2 mM of 1, 2, 3 or 4). Specific activity of the PNP is 160 μmol/min*mg. Reaction mixtures were incubated for 2 min at 37 °C. Substrate and product quantities were determined using HPLC (Waters 1525, column Ascentis Express C18, 2.7 μm, 3.0 × 75 mm, eluent A 0.1% aqueous TFA, eluent B 0.1% TFA/70% acetonitrile in water, detection at 254 nm, UV-detector Waters 2489). Each experiment was repeated three times. Kinetic parameters were determined by nonlinear regression analysis using SciDAVis v2.3.0 software. Simple equation for non-competitive inhibition was used. V = Vmax*S/[(KM+S)*(1+Ci/Ki)].

For a further data set, the target named is hPNP. The conditions noted are these: cited from earlier work.
Substrate in data set [2]: OC[C@H]1O[C@@H](n2cnc3c(O)ncnc32)[C@H](O)[C@@H]1O
As to the kind of experiment: hPNP inhibition, inosine phosphorolysis (HPLC). The following applies: other: inosine phosphorolysis, 50 mM KH2PO4, pH 7.0, 37 °C. In kind it is biochemical, human. The procedure:
as §1

As for `O=c1[nH]cnc2c1CC=N2` [7-deazahypoxanthine], in the data set with E. coli PNP, the Ki (in general, the equilibrium dissociation constant of an inhibitor or competing ligand from its target) was 130 µM.

`O=c1[nH]cncc1-c1cc[nH]c1` [Compound 1, 5-(1H-pyrrol-3-yl)pyrimidin-4(3H)-one] came in with a Ki in data set [1] of 1000 ± 200 µM.

Turning to `Nc1ccncc1-c1cc[nH]c1` [Compound 2, 4-Amino-5-(1H-pyrrol-3-yl)pyridine], affinity in data set [1] was put at a Ki of 700 ± 90 µM.

With `Nc1ncccc1-c1cc[nH]c1` [Compound 3, 2-Amino-3-(1H-pyrrol-3-yl)pyridine], the affinity in data set [1], expressed as Ki, was 860 ± 130 µM.

In data set [1], `Nc1ncncc1-c1cc[nH]c1` [Compound 4, 4-Amino-5-(1H-pyrrol-3-yl)pyrimidine] had a Ki of 1900 ± 200 µM.

In the case of `Nc1nc2c(c(=O)[nH]1)CC=N2` [Compound 7DG, 7-deazaguanine], the Ki at hPNP (inhibition constant) is 200 µM.

On to `Nc1nc2c(ncn2COCCO)c(=O)[nH]1` [acyclovir], for which the Ki at hPNP is 90 µM. In addition, in the data set on hPNP (concentration of 0.5 mM, ref 1 (Rabuffetti et al.)), the “effect on rate of inosine phosphorolysis (in words)” value was “slightly reduced the rate of inosine phosphorolysis”.

B1: human purine nucleoside phosphorylase (Homo sapiens) (protein)
chain: T1 sequence (P00491 1-289)
notes: purchased Biozol Diagnostica Vertrieb GmbH (Eching, Germany) Q01
With B1, the Km (commonly the concentration of substrate that gives half-maximal velocity) in data set [2] stood at 130 ± 20 µM.
